Assay [1] addresses 5-HT1A. Conditions: known drugs of Table 1; reference not given; cited from earlier work.
In assay [2] the target is 5-HT5. The settings on record: known drugs of Table 1; reference not given; cited from earlier work.
The target in assay [3] is 5-HT6. The settings on record: known drugs of Table 1; reference not given; cited from earlier work.
The target of assay [4] is 5-HT7. Conditions: known drugs of Table 1; reference not given; cited from earlier work.
The target of assay [5] is 5-HT transporter. Conditions: known drugs of Table 1; reference not given; cited from earlier work.
Assay [6] deals with Adrenergic alpha1B. Conditions: known drugs of Table 1; reference not given; cited from earlier work.
Assay [7] has as its target DOPAMINE D2. The settings on record: known drugs of Table 1; reference not given; cited from earlier work.
The target of assay [8] is Dopamine transporter. Conditions: known drugs of Table 1; reference not given; cited from earlier work.
Assay [9] has as its target Histamine H2. The settings on record: known drugs of Table 1; reference not given; cited from earlier work.
For assay [10], the target named is Norepinephrine transporter. Conditions: known drugs of Table 1; reference not given; cited from earlier work.
Assay [11] deals with Adrenergic alpha1A. The settings on record: read-out: Ki Adrenergic alpha1A; known drugs of Table 1; reference not given; cited from earlier work.
Assay [12] deals with Adrenergic alpha2A. The settings on record: read-out: Ki Adrenergic alpha2A; known drugs of Table 1; reference not given; cited from earlier work.
Assay [13] concerns the target Adrenergic alpha2B. The settings on record: read-out: Ki Adrenergic alpha2B; known drugs of Table 1; reference not given; cited from earlier work.
For assay [14], the target named is Adrenergic alpha2C. Conditions: read-out: Ki Adrenergic alpha2C; known drugs of Table 1; reference not given; cited from earlier work.
The target in assay [15] is Adrenergic beta1. The settings on record: read-out: Ki Adrenergic beta1; known drugs of Table 1; reference not given; cited from earlier work.
In assay [16] the target is Adrenergic beta2. Conditions: read-out: Ki Adrenergic beta2; known drugs of Table 1; reference not given; cited from earlier work.
Assay [17] addresses DOPAMINE D1. Conditions: read-out: Ki DOPAMINE D1; known drugs of Table 1; reference not given; cited from earlier work.
Assay [18] deals with DOPAMINE D4. The settings on record: read-out: Ki DOPAMINE D4; known drugs of Table 1; reference not given; cited from earlier work.
Assay [19] concerns the target DOPAMINE D5. Conditions: read-out: Ki DOPAMINE D5; known drugs of Table 1; reference not given; cited from earlier work.
Assay [20] addresses human 5-HT2AR (Homo sapiens, UniProt P28223). The settings on record: known drugs of Table 1; reference not given; read-out: Ki 5-HT2A, Table 1 known drugs; cited from earlier work.
For assay [21], the target named is human 5-HT2BR (Homo sapiens, UniProt P41595).
The target of assay [22] is T1, human 5-HT2CR (Homo sapiens, UniProt P28335).
T1 sequence (P28335 33-458): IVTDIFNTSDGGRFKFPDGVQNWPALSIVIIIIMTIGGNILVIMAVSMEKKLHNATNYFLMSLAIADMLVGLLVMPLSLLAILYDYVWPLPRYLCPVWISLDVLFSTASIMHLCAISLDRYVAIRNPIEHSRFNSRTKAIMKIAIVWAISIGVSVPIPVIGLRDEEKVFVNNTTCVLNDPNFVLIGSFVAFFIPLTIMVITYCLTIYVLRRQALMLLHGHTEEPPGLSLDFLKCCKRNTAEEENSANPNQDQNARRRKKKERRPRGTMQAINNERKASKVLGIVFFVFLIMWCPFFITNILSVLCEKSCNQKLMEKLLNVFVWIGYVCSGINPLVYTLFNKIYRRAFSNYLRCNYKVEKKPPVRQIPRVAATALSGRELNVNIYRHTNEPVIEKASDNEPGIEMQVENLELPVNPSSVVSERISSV

The target in assay [23] is human H1 (Homo sapiens, UniProt P35367). The settings on record: known drugs of Table 1; reference not given; read-out: Ki Histamine H1, Table 1 known drugs; cited from earlier work.
Assay [24] addresses 5-HT1B. The settings on record: known drugs of Table 1; reference not given; cited from earlier work.
For assay [25], the target named is 5-HT1D. Conditions: known drugs of Table 1; reference not given; cited from earlier work.
Assay [26] concerns the target Histamine H3. The settings on record: known drugs of Table 1; reference not given; cited from earlier work.
For assay [27], the system named is scn1lab mutant zebrafish. As to the kind of experiment: locomotion (mean swim velocity) seizure-like behaviour assay in scn1lab mutant zebrafish larvae. Conditions: three concentrations; 30 and 90 min exposure. It is filed as in vivo, Danio rerio. The method in brief:
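Scn1lab mutant larvae at 5 dpf, one per well in embryo media, acclimated 20 min at room temperature, then tracked 10 min for distance travelled and mean velocity. A ≥40% change in mean swim velocity counted as significant. Toxicity (heartbeat, touch escape response) checked after 90 min drug exposure.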

Assay [28] deals with scn1lab mutant zebrafish. As to the kind of experiment: local field potential (LFP) electrophysiology, electrographic seizure events. In kind it is in vivo, Danio rerio. Conditions: 250 µM; 10 min recording epoch. The method, then:
Using a glass micro-electrode positioned under an upright microscope, local field potential (LFP) recordings were obtained from forebrain or optic tectum structures, as described ([Baraban et al., 2005]). Agarose-embedded LFP recording sessions (10 min in duration) were obtained using Axoclamp software (Molecular Devices; Sunnyvale, CA, USA) and sampled at 1 kHz. Epileptiform events were identified post hoc. These were classified as multi-spike or poly-spike upward or downward membrane deflections greater than 3× baseline noise level and 150–250 ms in duration (interictal-like) or greater than 5× baseline noise, multi-spike and >500 ms in duration (ictal-like); both events were counted using threshold detection settings in Clampfit (Molecular Devices; Sunnyvale, CA, USA). Agarose-embedded larvae were continuously monitored for blood flow and heart rate using an Axiocam digital camera at video frame rate.
Monitoring electrographic brain activity to confirm seizure suppression is an essential assay to eliminate false positives from behavioural testing ([Griffin et al., 2018]). By placing a micro-electrode into a visually identified brain region of an agar-immobilized zebrafish larval, stable LFP recordings can be monitored for several hours ([Baraban, 2013]). At 5 days post-fertilization, LFP recordings of scn1Lab zebrafish larvae show an average of 250 abnormal electrographic seizure events during a 10 min recording epoch.

Assay [29] deals with 5-HT1E. Conditions: known drugs of Table 1; reference not given; cited from earlier work.
The target in assay [30] is 5-HT1F. Conditions: known drugs of Table 1; reference not given; cited from earlier work.

Read-outs that look alike come from different tables or passages of the source.

Chain of human 5-HT2BR (P41595 whole entry): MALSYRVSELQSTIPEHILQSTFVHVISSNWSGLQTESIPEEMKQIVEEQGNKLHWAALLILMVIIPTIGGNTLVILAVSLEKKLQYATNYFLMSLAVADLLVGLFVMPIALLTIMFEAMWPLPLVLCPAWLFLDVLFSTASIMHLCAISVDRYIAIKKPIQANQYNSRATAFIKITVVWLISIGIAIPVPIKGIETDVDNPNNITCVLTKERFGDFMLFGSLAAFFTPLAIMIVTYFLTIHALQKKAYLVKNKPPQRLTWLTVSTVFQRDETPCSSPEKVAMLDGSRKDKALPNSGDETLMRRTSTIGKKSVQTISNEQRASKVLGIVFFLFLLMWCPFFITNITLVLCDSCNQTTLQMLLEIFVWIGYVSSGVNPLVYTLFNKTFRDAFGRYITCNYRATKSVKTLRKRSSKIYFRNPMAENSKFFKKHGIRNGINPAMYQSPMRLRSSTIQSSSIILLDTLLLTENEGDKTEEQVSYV
Chain of human 5-HT2AR (P28223 whole entry): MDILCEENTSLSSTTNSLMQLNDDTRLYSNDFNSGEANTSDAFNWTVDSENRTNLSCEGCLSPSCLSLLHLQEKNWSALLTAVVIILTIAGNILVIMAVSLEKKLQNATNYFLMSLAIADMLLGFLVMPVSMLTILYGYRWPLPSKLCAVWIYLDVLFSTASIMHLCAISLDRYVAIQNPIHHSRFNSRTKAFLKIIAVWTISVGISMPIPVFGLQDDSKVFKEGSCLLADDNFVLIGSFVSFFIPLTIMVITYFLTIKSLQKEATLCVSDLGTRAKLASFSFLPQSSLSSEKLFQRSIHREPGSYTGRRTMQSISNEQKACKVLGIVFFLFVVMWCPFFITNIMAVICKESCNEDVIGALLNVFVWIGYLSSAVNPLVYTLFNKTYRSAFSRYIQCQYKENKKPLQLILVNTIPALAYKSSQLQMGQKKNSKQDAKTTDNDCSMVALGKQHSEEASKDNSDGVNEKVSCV
Chain of human H1 (P35367 whole entry): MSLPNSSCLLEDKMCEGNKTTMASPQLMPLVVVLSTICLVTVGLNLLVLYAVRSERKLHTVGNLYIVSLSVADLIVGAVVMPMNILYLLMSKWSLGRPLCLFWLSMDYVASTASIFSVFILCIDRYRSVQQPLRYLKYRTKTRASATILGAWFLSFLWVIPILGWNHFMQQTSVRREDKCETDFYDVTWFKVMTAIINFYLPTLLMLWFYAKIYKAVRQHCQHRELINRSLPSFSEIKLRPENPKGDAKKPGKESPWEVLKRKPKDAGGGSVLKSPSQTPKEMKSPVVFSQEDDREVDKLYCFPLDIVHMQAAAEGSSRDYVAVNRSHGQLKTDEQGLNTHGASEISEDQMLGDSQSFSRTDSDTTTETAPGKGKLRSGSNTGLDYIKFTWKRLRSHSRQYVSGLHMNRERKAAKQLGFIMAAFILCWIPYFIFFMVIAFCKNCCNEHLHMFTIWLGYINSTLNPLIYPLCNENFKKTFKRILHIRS

Usually Ki stands for a dissociation constant, usually derived from enzyme kinetics or from competition with a known ligand. Consider `C[C@H]1CNCCc2ccc(Cl)cc21` [lorcaserin], for which the Ki is 700 nM in assay [1]; 3710 nM in assay [2]; 1980 nM in assay [3]; 636 nM in [4]; 990 nM in [5]; > 10000 nM in [6]. Also, the Ki in [7] was > 10000 nM; in [8], > 10000 nM; in assay [9] it was > 10000 nM; in assay [10], 1400 nM; in assay [11] it was > 10000 nM; in [12] it was > 10000 nM. Further, the Ki in assay [13], in assay [14], in assay [15], in assay [16], in assay [17] and in assay [18] was > 10000 nM throughout. Moreover, in [19], the inhibition constant Ki is > 10000 nM.

With `Clc1ccc(Cn2c(CN3CCCC3)nc3ccccc32)cc1` [clemizole], the Ki in assay [20] is 239 nM; in assay [21] (known drugs of Table 1; reference not given; read-out: Ki 5-HT2B, Table 1 known drugs; cited from earlier work) it was 25 nM; in assay [22] (known drugs of Table 1; reference not given; read-out: Ki 5-HT2C, Table 1 known drugs; cited from earlier work), 197 nM; in [23], 1.3 nM; in assay [1], > 10000 nM; in [24], > 10000 nM. Also, the Ki in [25] was > 10000 nM; in [3], > 10000 nM; in [4], > 10000 nM; in assay [26], 402 nM; in assay [10], > 10000 nM.

`CC[C@@H](CO)NC(=O)[C@@H]1C=C2c3cccc4[nH]cc(c34)C[C@H]2N(C)C1` [methylergonovine]: in assay [27], the “effect on seizure-like swim behaviour, commercially available compounds” value is reported as “suppressed convulsive swim behaviours in a concentration-dependent manner”. Further, in assay [28], the “effect on frequency of electrographic seizure events (LFP)” value was “significantly suppressed the frequency of electrographic seizure events”. Moreover, the Ki in [21] (read-out: Ki 5-HT2B, Table 1 known drugs; known drugs of Table 1; reference not given; cited from earlier work) was 2.2 nM; in assay [22] (read-out: Ki 5-HT2C, Table 1 known drugs; known drugs of Table 1; reference not given; cited from earlier work) it was 4.6 nM; in [29], 89.1 nM; in assay [30] it was 31 nM.

(Values after paper PMC6798786 (Brain Communications, 2019).)
